Laboratory results as given in patent US4931462A, “Heterocyclic substituted alkylsulphonamides pharmaceutical compositions containing them, and arterial disease treatment therewith” (Boehringer Mannheim GmbH, priority 1987, dated 1990).

Tests used:
[1] = tested on: U 46619-induced pulmonary embolism; experiment: Preventing the U 46619-induced pulmonary embolism (survival rate of mouse); assay type: in vivo, mouse (male NMRI); details: lethal U 46619 (800-1000 μg/kg) into tail vein after 4 hours, survivors/animals used; for Survival Rate of Mouse 1 mg/kg, 4 h: 1 mg/kg by stomach tube in 1% methylcellulose; for Survival Rate of Mouse 25 mg/kg, 4 h: 25 mg/kg by stomach tube in 1% methylcellulose
Method: 2. Preventing the U 46619-Induced Pulmonary Embolism
Male NMRI mice, with a body weight of 25 g. are used. The test substance is suspended in 1% methylcellulose and administered to the experimental animals with the help of a stomach tube. The provocation test consists of injecting the lethal dose (800-1000 μg/kg) of the thromboxane mimetic (U 46619 of the Upjohn Co.) rapidly into the tail vein. The duration of the specific antagonistic effect is tested by pretreating the animals with 25 mg or 1 mg/kg of the different test substances and injecting U 46619 after 4 hours. The survival rate indicates how many of the animals used have survived the injection of the thromboxane mimetic.

[2] = tested on: thrombocyte aggregation (TX antagonistic effect); experiment: TX antagonistic effect: inhibition of U 46619-induced thrombocyte aggregation in platelet-rich plasma of healthy blood donors (Born and Cross); assay type: cell-based; details: Erythrocyte, 5 min; U 46619-induced aggregation, human platelet-rich plasma, citrate, followed over 5 minutes; read-out: Human Erythrocytes IC50
Description: 1. TX Antagonistic Effect of Human Erythrocytes
The thrombocyte aggregation is investigated by the method of Born and Cross (J. Physiol. 168, 178 (1963) in platelet-rich plasma of healthy blood donors. To inhibit clotting, the blood is mixed with 3.2% citrate in a ratio by volume of 1:9.
To induce thrombocyte aggregation, U 46619 (Upjohn & Co., Kalamazoo, U.S.A.), which is a stable analog of the prostaglandin endoperoxide […], is used. U 46619 was characterized as a selective thromboxane mimetic (Coleman et al., Brit. J. Pharmacol. 68, 127 P., 1980).
The aggregation test is carried out in a 4-channel aggregometer (Profiler® of the Bio/Data Co., U.S.A.). The course of the aggregation is followed over a period of 5 minutes. At the end of the test, the degree of aggregation attained is printed out. These values, which are obtained in the presence of different concentrations of the substance to be tested, are used for the determination of the EC50 for the TX antagonistic effect. The effectiveness varies inversely with the EC50 value.

Row | SMILES | Survival Rate of Mouse 1 mg/kg, 4 h [1] | IC50 [2] [µM] | Survival Rate of Mouse 25 mg/kg, 4 h [1]
1 | O=C(O)c1cc2cc(CCNS(=O)(=O)c3ccc(Cl)cc3)ccc2[nH]1 [12 l] | 2/5 | 1.4 | –
2 | O=C(O)c1cc2cc(CCNS(=O)(=O)c3ccc(Cl)cc3)ccc2o1 [Example 11, 5-[2-(4-Chlorobenzenesulphonamido)-ethyl]-benzo[b]-furan-2-carboxylic acid] | 4/5 | 0.75 | 10/10
3 | Cc1ccc(S(=O)(=O)NCCc2ccc3oc(C(=O)O)cc3c2)cc1 [12 b] | – | 1.6 | 4/5
4 | O=C(O)c1cc2cc(CCNS(=O)(=O)c3ccc(Br)cc3)ccc2o1 [12 e] | – | 2.7 | 5/5
5 | O=C(O)C1Cc2cc(CCNS(=O)(=O)c3ccccc3)ccc2O1 (stereo not drawn) [Example 13, 5-(2-Benzenesulphonamidoethyl)-2,3-dihydrobenzo[b]furan-2-carboxylic acid] | – | 1.2 | 5/5
6 | Cc1c(C(=O)O)oc2ccc(CCNS(=O)(=O)c3ccc(Cl)cc3)cc12 [12 g] | – | 1.7 | 5/5
7 | O=C(O)COc1ccc(CCNS(=O)(=O)c2ccccc2)cc1 [Comparison Compound, 4-[2-(benzenesulfonylamino)-ethyl]-7-phenoxyacetic acid, reference compound] | – | 1.85 | 2/2
